Data as given in PubChem BioAssay AID1963826 (Molecular Pharmacology Branch, DTP, NCI, 2024).

Tested on: 926638-142-R-J1-PDC complex spheroid viability
Assay: Anticancer human tumor 926638-142-R-J1-PDC patient-derived endometrial carcinoma cell line growth inhibition [POLQ]
Conditions: for IC50: curve of first compound; for viability, T/C: stronger effect = lower value; active = viability on the fitted dose curve at most 10% of control; inactive = the rest
Experimental: Multicellular complex tumor spheroid response to Polymerase (POL) inhibitors (novobiocin, ART-558, RP6685) in combination with a variety of drugs and investigational agents in selected tumor cell lines
The POL inhibitors (novobiocin, ART-558, and RP6685) were evaluated both individually and in combination with standard of care and investigational anticancer small molecules within a complex spheroid model of solid tumors. . Complex spheroids include a stromal component modeled by human endothelial cells (HUVEC) and fibroblasts modeled by human mesenchymal stem cells (MSCs). The concentration ranges selected for each drug and investigational agent were based upon clinically achievable concentrations if the clinical Cmax of the agent was known.
Compounds. The drugs and investigational agents: novobiocin (NSC847541), ART-558 (NSC835418), RP-6685 (NSC848927), peposertib (NSC802822), ceralasertib (NSC780249), elimusertib (NSC800525), camonsertib (NSC841442), AZD-1390 (NSC803789), olaparib (NSC753686), talazoparib (NSC767125), rucaparib (NSC756644), sotorasib (NSC818433), MRTX-1133 (NSC836407), SN-38 (NSC673596), topotecan (NSC609699), epotoside (NSC141540), doxorubicin (NSC123127), gemcitabine (NSC613327), 5-fluorouracil (NSC19893), paclitaxel (NSC125973), vemurafenib (NSC761431), MSA-2 (NSC828583), SN-011 (NSC837082), adavosertib (NSC754352), prexasertib (NSC758257), carboplatin (NSC241240) and oxaliplatin (NSC266046), were obtained from the National Cancer Institute (NCI) Developmental Therapeutics Program Chemical Repository (21). The FDA-approved anticancer drug set is available from the Developmental Therapeutics Program at https://dtp.cancer.gov/organization/dscb/obtaining/. […] The stock solutions were prepared in dimethyl sulfoxide (DMSO, Sigma-Aldrich, St. Louis, MO, cat. D2650), except for the platinum compounds which were prepared in saline (Quality Biological, Gaithersburg, MD, cat. 114-055-101), at 800-fold the tested concentration and stored at -70 degrees C prior to their use. All drugs and investigational agents were tested over a range starting from a high concentration at or near the clinical Cmax and decreasing in half-log increments. If the clinical Cmax for an agent had not been determined, the highest concentration tested was 10 microM, except for SN-38, which was tested at a high concentration of 1 microM.
Cell Culture. All cells were maintained in an incubator at 37 degrees C and 5% CO2 with 95% humidity. The PDC lines were cultured according to standard operating procedures established by the NCI PDMR (https://pdmr.cancer.gov). Table 3 of the manuscript, lists the cell lines along with the number of the three cell types plated to form the mct-spheroids and media for tumor cell growth. After thawing, all PDC lines, except 997537-175-T-J1-PDC and 415267-285-R-J2-PDC, were cultured in Matrigel-coated flasks prepared with a working solution of 1X Ham's F-12 nutrient mix, without supplementation (Thermo Fisher Scientific, cat. 11765054), 100 U/mL penicillin-streptomycin (Thermo Fisher Scientific, cat. 15140122), and 2.5% Matrigel (Corning Inc., Corning, NY, cat. 354248) for the first three passages. The two PDC lines 997537-175-T-J1-PDC and 415267-285-R-J2-PDC were cultured on uncoated flasks. The 857933-349-R-J2-PDC line was cultured in 6C/Colon 1B media containing advanced DMEM/F-12 (Thermo Fisher Scientific, cat. 12634028), 10 mM HEPES (Thermo Fisher Scientific, cat. 15630080), 1X GlutaMAX supplement (Thermo Fisher Scientific, cat. 35050061), 0.1 mg/mL primocin (InvivoGen, San Diego, CA, cat. ant-pm-2), 10% defined fetal bovine serum, heat inactivated (HyClone Laboratories Inc., Logan, UT, cat. SH30070.03HI), 50% L-WRN conditioned media (ATCC, cat. CRL-3276), 1.25 mM N-Acetyl-L-cysteine (Sigma-Aldrich, cat. A9165), 10 mM nicotinamide (Sigma-Aldrich, cat. N0636), 1X B-27 supplement (Thermo Fisher Scientific, cat. 17504044), 1X N-2 supplement (Thermo Fisher Scientific, cat. […]

[1] = second compound 0.0316 µM, first compound 0.0316 µM
[2] = second compound 0.0316 µM, first compound 0.1 µM
[3] = second compound 0.0316 µM, first compound 0.316 µM
[4] = second compound 0.0316 µM, first compound 1 µM
[5] = second compound 0.0316 µM, first compound 3.16 µM
[6] = second compound 0.0316 µM, first compound 10 µM
[7] = second compound 0.1 µM, first compound 0.0316 µM
[8] = second compound 0.1 µM, first compound 0.1 µM
[9] = second compound 0.1 µM, first compound 0.316 µM
[10] = second compound 0.1 µM, first compound 1 µM
[11] = second compound 0.1 µM, first compound 3.16 µM
[12] = second compound 0.1 µM, first compound 10 µM
[13] = second compound 0.316 µM, first compound 0.0316 µM
[14] = second compound 0.316 µM, first compound 0.1 µM
[15] = second compound 0.316 µM, first compound 0.316 µM
[16] = second compound 0.316 µM, first compound 1 µM
[17] = second compound 0.316 µM, first compound 3.16 µM
[18] = second compound 0.316 µM, first compound 10 µM
[19] = second compound 1 µM, first compound 0.0316 µM
[20] = second compound 1 µM, first compound 0.1 µM
[21] = second compound 1 µM, first compound 0.316 µM
[22] = second compound 1 µM, first compound 1 µM
[23] = second compound 1 µM, first compound 3.16 µM
[24] = second compound 1 µM, first compound 10 µM
[25] = second compound 3.16 µM, first compound 0.0316 µM
[26] = second compound 3.16 µM, first compound 0.1 µM
[27] = second compound 3.16 µM, first compound 0.316 µM
[28] = second compound 3.16 µM, first compound 1 µM
[29] = second compound 3.16 µM, first compound 3.16 µM
[30] = second compound 3.16 µM, first compound 10 µM
[31] = second compound 10 µM, first compound 0.0316 µM
[32] = second compound 10 µM, first compound 0.1 µM
[33] = second compound 10 µM, first compound 0.316 µM
[34] = second compound 10 µM, first compound 1 µM
[35] = second compound 10 µM, first compound 3.16 µM
[36] = second compound 10 µM, first compound 10 µM
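Note: spheroids exposed to drugs for one week before readout.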
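Throughout, for viability, T/C: percent viability relative to DMSO vehicle control wells set as 100%.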

CC(C)n1c(=O)n(C)c2cnc3cc(F)c(-c4ccc(OCCCN5CCCCC5)nc4)cc3c21 + COC1C(OC(N)=O)C(O)C(Oc2ccc3c(O)c(NC(=O)c4ccc(O)c(CC=C(C)C)c4)c(=O)oc3c2C)OC1(C)C
inactive: viability, T/C [1] 87.3% | viability, T/C [2] 131% | viability, T/C [3] 131% | viability, T/C [4] 94.1% | viability, T/C [5] 87.2% | viability, T/C [6] 88.7% | viability, T/C [7] 98.7% | viability, T/C [8] 89.8% | viability, T/C [9] 110% | viability, T/C [10] 107% | viability, T/C [11] 90.3% | viability, T/C [12] 93.5% | viability, T/C [13] 101% | viability, T/C [14] 104% | viability, T/C [15] 108% | viability, T/C [16] 90.2% | viability, T/C [17] 86.6% | viability, T/C [18] 89% | viability, T/C [19] 119% | viability, T/C [20] 104% | viability, T/C [21] 104% | viability, T/C [22] 119% | viability, T/C [23] 81.9% | viability, T/C [24] 90.2% | viability, T/C [25] 87.4% | viability, T/C [26] 107% | viability, T/C [27] 101% | viability, T/C [28] 109% | viability, T/C [29] 88.2% | viability, T/C [30] 105% | viability, T/C [31] 114% | viability, T/C [32] 104% | viability, T/C [33] 114% | viability, T/C [34] 100% | viability, T/C [35] 89.5% | viability, T/C [36] 78.5%
> 10000 nM: IC50 (second compound 0.0316 µM) | IC50 (second compound 0.1 µM) | IC50 (second compound 0.316 µM) | IC50 (second compound 1 µM) | IC50 (second compound 3.16 µM) | IC50 (second compound 10 µM)

COc1ccc([C@@H](O)c2cc(-c3ncnc4cc(N5CCOCC5)ccc34)c(F)cc2Cl)nn1 + COC1C(OC(N)=O)C(O)C(Oc2ccc3c(O)c(NC(=O)c4ccc(O)c(CC=C(C)C)c4)c(=O)oc3c2C)OC1(C)C
634 nM: IC50 (second compound 3.16 µM)
454 nM: IC50 (second compound 0.1 µM)
443 nM: IC50 (second compound 1 µM)
535 nM: IC50 (second compound 0.316 µM)
468 nM: IC50 (second compound 10 µM)
434 nM: IC50 (second compound 0.0316 µM)
inactive: viability, T/C [1] 106% | viability, T/C [2] 77.5% | viability, T/C [3] 64% | viability, T/C [4] 28.1% | viability, T/C [5] 16.5% | viability, T/C [7] 109% | viability, T/C [8] 89% | viability, T/C [9] 64% | viability, T/C [10] 24.4% | viability, T/C [11] 12.6% | viability, T/C [13] 106% | viability, T/C [14] 92.4% | viability, T/C [15] 64.9% | viability, T/C [16] 31.9% | viability, T/C [17] 17.5% | viability, T/C [18] 9.34% | viability, T/C [19] 84.7% | viability, T/C [20] 82.3% | viability, T/C [21] 57.7% | viability, T/C [22] 29.1% | viability, T/C [23] 10.7% | viability, T/C [25] 96.4% | viability, T/C [26] 102% | viability, T/C [27] 80.4% | viability, T/C [28] 29.8% | viability, T/C [29] 11.9% | viability, T/C [31] 91.6% | viability, T/C [32] 88.9% | viability, T/C [33] 57.8% | viability, T/C [34] 30.9% | viability, T/C [35] 14%
active: viability, T/C [6] 8.85% | viability, T/C [12] 7.89% | viability, T/C [24] 9.06% | viability, T/C [30] 7.51% | viability, T/C [36] 7.25%
